Measured values: US20150250786A1, “PYRIMIDINE HYDROXY AMIDE COMPOUNDS AS PROTEIN DEACETYLASE INHIBITORS AND METHODS OF USE THEREOF” (THE TRUSTEES OF THE UNIVERSITY OF PENNSYLVANIA, priority 2012, published 2015)
Values joined by “and” are separate entries in the source; they are usually repeats but may differ in a detail not shown here. Equal values may be shown once. Read-outs that look alike come from different tables or passages of the source.

Key:
[1] = system: RN46A-B14 serotonergic cell line; assay: α-tubulin K40 acetylation in RN46A-B14 cells (Western blot); assay type: cell-based, rat; details: 4 hours; TSA 0.6 μM, others 2.5 μM
Experimental: In FIG. 3, it was observed that subchronic treatment, consisting of 5 treatments at 48, 28, 24, 4 and ½ hours before sacrifice, led to greater increase in tubulin acetylation than did chronic treatment of 1 injection/day for 21 days. For cell culture, RN46B cells were treated for with 0.25, 2.5 or 25 μM drug in DMSO for 1, 4 or 24 hours as indicated. Tukey post-hoc analysis: * P=0.01 to 0.05, ** P=0.001-0.01, ***P<0.001 when compared with vehicle treatment.
(§1) Results are shown as percent change normalized to the vehicle treatment condition. The horizontal hard line depicts average and the dotted lines depict SEM of the vehicle treated wells. Representative Western blot images are presented. […] Representative Western blot images are presented. […] The drugs (5 mg/kg) were administered subchronically (at 24 h, 4 h and 30 min prior to sacrifice) to HDAC6 KO and WT littermates. The changes in tubulin acetylation were measured in tissue lysates from cortex (ctx), hippocampus (Hpc), dorsal Raphe nucleus (DRN) and cerebellum (cb). The tubulin acetylation levels in drug-treated mice are expressed as percent change of the vehicle-treated mice of the corresponding genotype. The horizontal lines depict the average tubulin acetylation±SEM in the vehicle treated mice. The representative Western blot images show the changes induced by each drug treatment in the hippocampus (left column) and dorsal raphe (right column) of WT and HDAC6 KO mice.
In contrast to the class I isoforms HDAC2 and 3, which are expressed highly and ubiquitously in the mouse brain, HDAC6 mRNA expression appears to be restricted to a small number of brain areas, with highest signal observed in DRN (FIG. 13f). […] No changes in total α-tubulin expression were detected (FIG. 14a).

[2] = system: RN46A-B14 serotonergic cell line; assay: Histone H3K9 acetylation in RN46A-B14 cells (Western blot); assay type: cell-based, rat; details: 2.5 μM, 4 hours
[3] = system: α-tubulin acetylation in mouse whole brain lysates; assay: α-tubulin acetylation in whole brain lysates after single i.p. administration; assay type: in vivo; details: compound 73 5 mg/kg, compound 101 50 mg/kg, tubastatin A 10 mg/kg, 30 min, 1 h, 4 h
[4] = system: α-tubulin K40 acetylation in cortex, hippocampus, DRN, cerebellum; assay: α-tubulin acetylation in brain regions after subchronic administration, WT and HDAC6 KO mice; assay type: in vivo, mouse
Experimental: as §1, with “The drugs (5 mg/kg) were administered subchronically (at 24 h, 4 h and 30 min prior to sacrifice) to HDAC6 KO and WT littermates.” left out

[5] = system: histone H3 lysine 9 acetylation; assay: Histone H3K9 acetylation in vivo (Western blot, ChIP); design: species or system mouse
mice [6] = assay: Open-field test; assay type: in vivo, mouse
mice [7] = assay: Marble-burying task; assay type: in vivo, mouse; details: acute administration
mice [8] = assay: NIH test; assay type: in vivo, mouse; details: acute, 50 mg/kg
mice [9] = assay: Elevated plus maze (EPM); assay type: in vivo, mouse; details: acute administration
[10] = system: NIH Swiss mice; C57BL/6J HDAC6 WT and KO mice; assay: Tail suspension test (TST); assay type: in vivo, mouse; details: for immobility in TST: NIH Swiss mice
mice [11] = assay: Chronic social defeat (CSD) and social interaction test; assay type: in vivo, mouse; details: compound 73 5 mg/kg
Experimental: Additionally, when combined with a dose of Citalopram with lower activity, these compounds seemed to have an additive effect (See FIG. 10). The dose of Citalopram chosen for this experiment was based on literature stating 2 mg/kg should be subactive, but this dose was found still showing an effect. Mice then underwent chronic social defeat stress, in which the mice are exposed to an aggressive resident mouse for 5 minutes daily for 10 days and are then tested on the 11th day in the social interaction test. Mice treated with vehicle for 20 total days, beginning 10 days before the defeat, show reduced time spent in the interaction zone when a target mouse is present when compared with control mice. […] The percent of mice found to be resilient, defined as spending more time in the interaction zone than the lowest control (i.e. ˜52 s), is higher in HDAC6 inhibitor groups. All behavior testing done using NIH Swiss mice, age 6-10 weeks. Tukey post-hoc analysis: * P=0.01 to 0.05, ** P=0.001-0.01, ***P<0.001 compared with vehicle treated mice.
The effects were observed 30 minutes after acute 50 mg/kg i.p. injection, but not for the lower dose (5 mg/kg). Combination of subactive doses of the HDAC6 selective inhibitors (5 mg/kg) and citalopram (0.5 mg/kg) produced robust potentiation of anti-immobility activity (n=8-29 per condition). […] No difference was observed between HDAC6 WT and KO when treated with the vehicle (n=6-15 per condition). FIG. 16c is a timeline showing treatment period, social defeat and social interaction (SI) testing.
A pro-resilient phenotype in the mouse CSD paradigm after serotonin-selective KO of HDAC6 was previously reported (Espallergues et al, 2012). Whether a chronic pharmacological inhibition of HDAC6 can replicate that phenotype is studied. […] On day 21, 24 h after the last injection, the mice were tested in the social interaction test. […] Significant effects were also observed when data was evaluated in terms of proportion of mice reaching criterion for resiliency.

[12] = Pharmacokinetics and brain bio-distribution in mice; assay type: in vivo, mouse; details: mouse; for Kp: brain, calculated over 2 hours
Experimental: […] Plasma samples were taken from all mice upon sacrifice. Brain samples were taken from the mice sacrificed at 5 and 15 minutes and 1 and 4 hours. The brain samples were homogenized in PBS and centrifuged at 14000 rpm for 5 minutes. The supernatant from the brain homogenate and the plasma samples were injected onto a LC/MS/MS for analysis. The compound level in the samples was determined by a standard curve in the appropriate matrix. Pharmacokinetic parameters were determined from the raw data by WinNonLin.

[13] = Body weight gain during chronic treatment; assay type: in vivo, mouse; details: 4 weeks of treatment

## O=C(NO)c1cnc(NC2(c3ccccc3)CC2)nc1 [Compound 73, N-hydroxy-2-((1-phenylcyclopropyl)amino)pyrimidine-5-carboxamide]
[1]
  acetylated (lysine 40) fraction of α-tubulin: increases
[2]
  change in histone H3K9 acetylation: no significant change
[3]
  α-tubulin acetylation in whole brain lysates: significant increases
[4]; HDAC6 KO mice, identical treatment regimens
  α-tubulin acetylation over baseline levels: did not produce increases
[4]; wild-type mice, 24 h, 4 h, 30 m before sacrifice, compound 73 5 mg/kg, compound 101 50 mg/kg
  α-tubulin acetylation in cortex, hippocampus, DRN, cerebellum: significant increases
[5]; hippocampus, repeated i.p., compound 73 5 mg/kg, sodium butyrate 1.2 g/kg
  histone H3K9 acetylation enrichment at promoter DNA (cFOS, BDNF promoter 4), ChIP: no concurrent changes
[5]; in vivo treatment
  acetylation of histone 3 at lysine 9 in Western blot: did not significantly alter
Mice [6]; acute, compounds 73, 101 50 mg/kg, tubastatin A 10 mg/kg
  exploratory activity in novel open-field arena: hyperlocomotor effects
Mice [6]; mouse, in vivo
  distance in the center of the open field: 602±96 beam breaks
Mice [7]
  number of marbles buried: significantly reduced
Mice [8]
  latency to eat in the NIH test: significantly decreased
Mice [9]
  behavioral changes / time in the open arms of the maze: neither compound 73 nor compound 101 produced behavioral changes
[10]; 5 mg/kg
  immobility in TST: No significant effect
[10]; 20 mg/kg citalopram, 50 mg/kg compound 73
  activity in TST two hours after the injection: still had significant activity
[10]; 50 mg/kg i.p., 30 minutes
  immobility in TST: Significant reductions
[10]; C57BL/6J background, versus WT littermates
  anti-immobility effect in HDAC6 KO mice: no significant effect
[10]; mouse, in vivo
  anti-immobility effects in C57BL/6J WT mice: still significant
Mice [11]; 20 days treatment, fluoxetine 20 mg/kg, compound 101 50 mg/kg
  time in the interaction zone versus vehicle, defeated mice: significantly higher
Mice [11]; after CSD, fluoxetine 20 mg/kg, compound 101 50 mg/kg
  percentage of resilient mice: 81%
Mice [11]; versus vehicle
  time spent in the corner zones: decrease
[12]; C57BL/6J, intraperitoneal, read-out: AUCBrain/AUCplasma
  Kp: 1.22
[12]; C57BL/6J, plasma, intraperitoneal, 5 mg/kg, read-out: 30 min plasma concentration (ng/ml) - 5 mg/kg
  concentration at 30 min: 89 ng/mL
[12]; C57BL/6J, plasma, intraperitoneal, 50 mg/kg, read-out: 30 min plasma concentration (ng/ml) - 50 mg/kg
  concentration at 30 min: 515 ng/mL
[12]; C57BL/6J, plasma, ip, 5 mg/kg, mice, acute i.p. dosing, read-out: Cmax
  Cmax: 494 ng/mL
[12]; C57BL/6J, plasma, ip, mice, acute i.p. dosing, read-out: T½ plasma (converted)
  half-life: 12 min
[12]; intraperitoneal, read-out: AUCBrain/AUCplasma ratio
  Kp: > 1
[12]; plasma, intraperitoneal, acute 50 mg/kg injection, read-out: plasma level at t=30 minutes
  concentration at 30 min: 515 ng/mL and 1.9 µM
[12]; plasma, intraperitoneal, read-out: plasma concentration after two hours
  concentration at 2 h: < 10 ng/mL
[12]; plasma, intraperitoneal, read-out: plasmatic half-life
  half-life: 12 min
[13]
  body weight gain: no significant effect
